In patent US12029217B2, “Safened compositions comprising pyridine carboxylate herbicides and isoxadifen” (Corteva Agriscience LLC, priority 2018, dated 2024):

Experiments:
Assay type in all cases: in vivo
[1] = system: Erigeron canadensis (Canada horseweed); assay: Greenhouse postemergence visual injury, Canada horseweed (ERICA)
Description: (§1) Seeds of the desired test plant species were planted in a 90:10% v/v (volume/volume) mixture of PRO-MIX® BX (Premier Tech Horticulture, Quakertown, PA, USA) and PROFILE® GREENS GRADE™ (Profile Products LLC, Buffalo Grove, IL, USA) planting mixture, which typically has a pH of 5.2 to 6.2 and an organic matter content of at least 50 percent, in plastic pots with a surface area of 103.2 square centimeters (cm^2). When required to ensure good germination and healthy plants, a fungicide treatment and/or other chemical or physical treatment was applied. The plants were grown for 7-36 days (d) in a greenhouse with an approximate 14-hour (h) photo-period which was maintained at about 23° C. during the day and 22° C. during the night. Nutrients and water were added on a regular basis and supplemental lighting was provided with overhead metal halide 1000-Watt lamps as necessary. The plants were employed for testing when they reached the second or third true leaf stage.
(§2) Emulsifiable concentrates of each of each pyridine carboxylate herbicide (Compound A or Compound B) were prepared at 100 grams acid equivalent per liter (g ae/L). An aliquot of each emulsifiable concentrate was placed in a 25 mL glass vial and diluted with an aqueous mixture of 1.25% (v/v) ACTIROB® B esterified rapeseed oil (Bayer Crop Science, Research Triangle Park, NC, USA) or MSO® Concentrate with LECI-TECH® methylated soybean oil (Loveland Products, Loveland, CO, USA) to obtain concentrated stock solutions at the highest application rate for each herbicide, based upon a 12 milliliter (mL) application volume at a rate of 187 liters per hectare (L/ha). The concentrated stock solutions were further diluted with an aqueous mixture of 1.25% v/v ACTIROB® B or MSO® Concentrate with LECI-TECH® to obtain stock solutions at reduced application rates for each herbicide. Spray solutions of the herbicide combinations (Compound A or Compound B plus safener) were prepared by adding weighed amounts or aliquots of the safener to the stock solutions of Compound A or Compound B to form 12-mL spray solutions in two-way combinations.
(§3) The spray solutions were applied to the plant material with an overhead Mandel track sprayer equipped with 8002E nozzles calibrated to deliver 187 L/ha over an application area of 0.503 square meters (m^2) at a spray height of 18 inches (43 centimeters (cm)) above the average plant canopy. Control plants were sprayed in the same manner with the solvent blank. All herbicide (component a) application rates are given as “g ae/ha” and all safener (component b) application rates are given as “g ai/ha.”
(§4) The treated plants and control plants were placed in a greenhouse as described above and watered by sub-irrigation to prevent wash-off of the test compounds. After 20-22 d, the condition of the test plants as compared with that of the control plants was determined visually and scored on a scale of 0 to 100 percent where 0 corresponds to no injury and 100 corresponds to complete kill.

Avena fatua (wild oat) = assay: Greenhouse postemergence visual injury, wild oat (AVEFA); conditions: Example 6
Description: as §1, §2
(§5) The spray solutions were applied to the plant material with an overhead Mandel track sprayer equipped with 8002E nozzles calibrated to deliver 187 L/ha over an application area of 0.503 square meters (m^2) at a spray height of 18 inches (43 centimeters (cm)) above the average plant canopy. […]
as §4

[2] = system: Sorghum vulgare (sorghum); assay: Greenhouse postemergence visual injury, sorghum (SORVU); conditions: Example 5
Description: as §1, §2, §3, §4

[3] = system: Lolium multiflorum (Italian ryegrass); assay: Greenhouse postemergence visual injury, Italian ryegrass (LOLMU)
Description: as §1, §2, §3, §4

[4] = system: Salsola kali (Russian thistle); assay: Greenhouse postemergence visual injury, Russian thistle (SASKR); conditions: Example 1
Description: as §1, §2, §5, §4

[5] = system: Cyperus esculentus (nutsedge); assay: Greenhouse postemergence visual injury, nutsedge (CYPES)
Description: as §1, §2, §3, §4

[6] = system: Echinochloa crus-galli (barnyardgrass); assay: Greenhouse postemergence visual injury, barnyardgrass (ECHCG)
Description: as §1, §2, §3, §4

[7] = system: Sorghum halepense (Johnson grass); assay: Greenhouse postemergence visual injury, Johnson grass (SORHA)
Description: as §1, §2, §3, §4

[8] = system: Alopecurus myosuroides (blackgrass); assay: Greenhouse postemergence visual injury, blackgrass (ALOMY); conditions: Example 6
Description: as §1, §2, §5, §4

[9] = system: Abutilon theophrasti (velvetleaf); assay: Greenhouse postemergence visual injury, velvetleaf (ABUTH); conditions: Example 6
Description: as §1, §2, §5, §4

[10] = system: Amaranthus palmeri (glyphosate-resistant Palmer amaranth); assay: Greenhouse postemergence visual injury, glyphosate-resistant Palmer amaranth (AMAPA-Gly); conditions: Example 7
Description: as §1, §2, §5, §4

[11] = system: Hordeum vulgare (spring barley); assay: Greenhouse postemergence visual injury, spring barley (HORVS)
Description: as §1, §2, §3, §4

[12] = system: Cirsium arvense (Canada thistle); assay: Greenhouse postemergence visual injury, Canada thistle (CIRAR); conditions: Example 6
Description: as §1, §2, §5, §4

[13] = system: Matricaria chamomilla (wild chamomile); assay: Greenhouse postemergence visual injury, wild chamomile (MATCH); conditions: Example 1
Description: as §1, §2, §5, §4

[14] = system: Oryza sativa (common rice); assay: Greenhouse postemergence visual injury, rice (ORYSA); conditions: Example 6
Description: as §1, §2, §5, §4

[15] = system: Kochia scoparia (herbicide-resistant kochia); assay: Greenhouse postemergence visual injury, herbicide-resistant kochia (KCHSC-R); conditions: Example 6
Description: as §1, §2, §5, §4

[16] = system: Helianthus annuus (common sunflower); assay: Greenhouse postemergence visual injury, common sunflower (HELAN)
Description: as §1, §2, §3, §4

[17] = system: Chenopodium album L. (common lambsquarters); assay: Greenhouse postemergence visual injury, common lambsquarters (CHEAL); conditions: Example 6
Description: as §1, §2, §5, §4

[18] = system: Viola tricolor (wild pansy); assay: Greenhouse postemergence visual injury, wild pansy (VIOTR); conditions: Example 6
Description: as §1, §2, §5, §4

[19] = system: Polygonum convolvulus (wild buckwheat); assay: Greenhouse postemergence visual injury, wild buckwheat (POLCO); conditions: Example 6
Description: as §1, §2, §5, §4

[20] = isoxadifen-ethyl 10 g/ha, Example 7
[21] = isoxadifen-ethyl 20 g/ha, Example 6
[22] = isoxadifen-ethyl 20 g/ha, Example 7
[23] = isoxadifen-ethyl 40 g/ha, Example 6
[24] = isoxadifen-ethyl 80 g/ha, Example 6
[25] = isoxadifen-ethyl 20 g/ha, Example 4
[26] = isoxadifen-ethyl 20 g/ha, Example 5
[27] = isoxadifen-ethyl 40 g/ha, Example 4
[28] = isoxadifen-ethyl 40 g/ha, Example 5
[29] = isoxadifen-ethyl 80 g/ha, Example 4
[30] = isoxadifen-ethyl 80 g/ha, Example 5
[31] = isoxadifen-ethyl 120 g/ha, Example 4
[32] = isoxadifen-ethyl 120 g/ha, Example 5

Measured: % visual injury, Ob

CCOC(=O)C1=NOC(c2ccccc2)(c2ccccc2)C1 [Isoxadifen-ethyl, isoxadifen-ethyl]
0%: [1]; [20] | [1]; [21] | [1]; [22] | [1]; [23] | [1]; [24] | Avena fatua (wild oat); isoxadifen-ethyl 20 g/ha | Avena fatua (wild oat); isoxadifen-ethyl 40 g/ha | Avena fatua (wild oat); isoxadifen-ethyl 80 g/ha | [2]; isoxadifen-ethyl 20 g/ha | [2]; isoxadifen-ethyl 40 g/ha | [2]; isoxadifen-ethyl 80 g/ha | [2]; isoxadifen-ethyl 120 g/ha | [3]; [20] | [3]; [21] | [3]; [22] | [3]; [23] | [3]; [24] | [4]; isoxadifen-ethyl 10 g/ha | [4]; isoxadifen-ethyl 20 g/ha | [4]; isoxadifen-ethyl 40 g/ha | [5]; [25] | [5]; [26] | [5]; [21] | [5]; [27] | [5]; [28] | [5]; [23] | [5]; [29] | [5]; [30] | [5]; [24] | [5]; [31] | [5]; [32] | [6]; [20] | [6]; [21] | [6]; [22] | [6]; [23] | [6]; [24] | [7]; [20] | [7]; [21] | [7]; [22] | [7]; [23] | [7]; [24] | [8]; isoxadifen-ethyl 20 g/ha | [8]; isoxadifen-ethyl 40 g/ha | [8]; isoxadifen-ethyl 80 g/ha | [9]; isoxadifen-ethyl 20 g/ha | [9]; isoxadifen-ethyl 40 g/ha | [9]; isoxadifen-ethyl 80 g/ha | [10]; isoxadifen-ethyl 10 g/ha | [10]; isoxadifen-ethyl 20 g/ha | [11]; isoxadifen-ethyl 10 g/ha, Example 1 | [11]; isoxadifen-ethyl 20 g/ha, Example 1 | [11]; isoxadifen-ethyl 20 g/ha, Example 2 | [11]; isoxadifen-ethyl 40 g/ha, Example 1 | [11]; isoxadifen-ethyl 40 g/ha, Example 2 | [11]; isoxadifen-ethyl 80 g/ha, Example 2 | [11]; isoxadifen-ethyl 120 g/ha, Example 2 | [12]; isoxadifen-ethyl 20 g/ha | [12]; isoxadifen-ethyl 40 g/ha | [12]; isoxadifen-ethyl 80 g/ha | [13]; isoxadifen-ethyl 10 g/ha | [13]; isoxadifen-ethyl 20 g/ha | [13]; isoxadifen-ethyl 40 g/ha | [14]; isoxadifen-ethyl 20 g/ha | [14]; isoxadifen-ethyl 40 g/ha | [14]; isoxadifen-ethyl 80 g/ha | [15]; isoxadifen-ethyl 20 g/ha | [15]; isoxadifen-ethyl 40 g/ha | [15]; isoxadifen-ethyl 80 g/ha | [16]; [25] | [16]; [26] | [16]; [21] | [16]; [27] | [16]; [28] | [16]; [23] | [16]; [29] | [16]; [30] | [16]; [24] | [16]; [31] | [16]; [32] | [17]; isoxadifen-ethyl 20 g/ha | [17]; isoxadifen-ethyl 40 g/ha | [17]; isoxadifen-ethyl 80 g/ha | [18]; isoxadifen-ethyl 20 g/ha | [18]; isoxadifen-ethyl 40 g/ha | [18]; isoxadifen-ethyl 80 g/ha | [19]; isoxadifen-ethyl 20 g/ha | [19]; isoxadifen-ethyl 40 g/ha | [19]; isoxadifen-ethyl 80 g/ha
